Results on 13 compounds are retold here after ChEMBL document CHEMBL5291721, “A preclinical secondary pharmacology resource illuminates target-adverse drug reaction associations of marketed drugs” (Nat Commun, 2023).

Some results are limits rather than exact numbers.

One assay addresses T1, Adenosine receptor A3 (Homo sapiens, UniProt P0DMS8).
T1 sequence (P0DMS8 whole entry): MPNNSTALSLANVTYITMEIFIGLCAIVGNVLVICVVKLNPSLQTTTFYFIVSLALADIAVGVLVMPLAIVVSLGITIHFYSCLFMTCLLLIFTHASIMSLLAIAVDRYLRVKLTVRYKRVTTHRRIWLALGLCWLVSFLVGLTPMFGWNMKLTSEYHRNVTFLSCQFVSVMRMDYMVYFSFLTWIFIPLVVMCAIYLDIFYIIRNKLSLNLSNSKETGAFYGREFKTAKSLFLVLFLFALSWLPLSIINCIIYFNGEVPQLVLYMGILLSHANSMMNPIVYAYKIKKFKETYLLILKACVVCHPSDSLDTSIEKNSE

For assay [1], the target named is T2, Muscarinic acetylcholine receptor M1 (Homo sapiens, UniProt P11229).
T2 sequence (P11229 whole entry): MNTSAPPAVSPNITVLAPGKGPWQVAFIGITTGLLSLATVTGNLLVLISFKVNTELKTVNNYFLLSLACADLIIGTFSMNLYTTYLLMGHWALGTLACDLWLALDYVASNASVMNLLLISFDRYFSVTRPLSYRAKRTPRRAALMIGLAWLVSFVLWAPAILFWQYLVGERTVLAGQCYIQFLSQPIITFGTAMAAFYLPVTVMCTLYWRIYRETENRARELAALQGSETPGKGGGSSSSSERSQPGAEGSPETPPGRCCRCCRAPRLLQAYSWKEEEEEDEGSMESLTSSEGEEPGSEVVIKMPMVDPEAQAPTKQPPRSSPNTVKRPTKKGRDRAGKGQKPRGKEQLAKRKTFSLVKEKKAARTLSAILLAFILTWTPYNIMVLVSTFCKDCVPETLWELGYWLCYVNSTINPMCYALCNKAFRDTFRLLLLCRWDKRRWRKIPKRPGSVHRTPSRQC
The assay is classed as functional, cell-based.

The next assay deals with Prothrombin (Homo sapiens, UniProt P00734). The format is functional.
Assay [2] deals with T3, 5-hydroxytryptamine receptor 1A (Homo sapiens, UniProt P08908).
T3 sequence (P08908 whole entry): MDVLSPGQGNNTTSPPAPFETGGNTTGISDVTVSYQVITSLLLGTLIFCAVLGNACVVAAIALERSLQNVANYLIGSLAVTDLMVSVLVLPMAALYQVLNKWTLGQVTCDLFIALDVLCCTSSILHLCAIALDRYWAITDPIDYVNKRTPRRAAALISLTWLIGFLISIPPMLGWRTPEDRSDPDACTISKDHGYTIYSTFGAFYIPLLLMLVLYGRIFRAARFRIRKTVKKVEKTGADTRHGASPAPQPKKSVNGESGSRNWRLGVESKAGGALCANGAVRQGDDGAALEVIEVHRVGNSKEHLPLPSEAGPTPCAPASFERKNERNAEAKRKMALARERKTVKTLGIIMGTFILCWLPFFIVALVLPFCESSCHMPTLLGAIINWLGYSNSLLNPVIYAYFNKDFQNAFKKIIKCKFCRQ

The target in assay [3] is 5-hydroxytryptamine receptor 2B (Homo sapiens, UniProt P41595). The format is functional, cell-based.
5-hydroxytryptamine receptor 2B, sequence (P41595 whole entry): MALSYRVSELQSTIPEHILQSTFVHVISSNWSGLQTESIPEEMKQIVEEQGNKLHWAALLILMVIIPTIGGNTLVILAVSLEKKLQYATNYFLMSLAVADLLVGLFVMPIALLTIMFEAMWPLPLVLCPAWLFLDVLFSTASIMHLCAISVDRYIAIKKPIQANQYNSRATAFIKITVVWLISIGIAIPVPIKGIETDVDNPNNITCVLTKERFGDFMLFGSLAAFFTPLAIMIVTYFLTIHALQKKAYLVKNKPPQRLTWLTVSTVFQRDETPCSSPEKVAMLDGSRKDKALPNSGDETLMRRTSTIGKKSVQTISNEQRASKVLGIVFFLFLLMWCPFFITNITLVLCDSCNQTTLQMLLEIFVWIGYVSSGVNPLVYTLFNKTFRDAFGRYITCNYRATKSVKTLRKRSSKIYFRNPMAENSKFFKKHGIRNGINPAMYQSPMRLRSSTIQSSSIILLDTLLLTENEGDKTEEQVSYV
In assay [4] the target is Vascular endothelial growth factor receptor 2 (Homo sapiens, UniProt P35968). The assay is classed as functional.
Vascular endothelial growth factor receptor 2, sequence (P35968 whole entry): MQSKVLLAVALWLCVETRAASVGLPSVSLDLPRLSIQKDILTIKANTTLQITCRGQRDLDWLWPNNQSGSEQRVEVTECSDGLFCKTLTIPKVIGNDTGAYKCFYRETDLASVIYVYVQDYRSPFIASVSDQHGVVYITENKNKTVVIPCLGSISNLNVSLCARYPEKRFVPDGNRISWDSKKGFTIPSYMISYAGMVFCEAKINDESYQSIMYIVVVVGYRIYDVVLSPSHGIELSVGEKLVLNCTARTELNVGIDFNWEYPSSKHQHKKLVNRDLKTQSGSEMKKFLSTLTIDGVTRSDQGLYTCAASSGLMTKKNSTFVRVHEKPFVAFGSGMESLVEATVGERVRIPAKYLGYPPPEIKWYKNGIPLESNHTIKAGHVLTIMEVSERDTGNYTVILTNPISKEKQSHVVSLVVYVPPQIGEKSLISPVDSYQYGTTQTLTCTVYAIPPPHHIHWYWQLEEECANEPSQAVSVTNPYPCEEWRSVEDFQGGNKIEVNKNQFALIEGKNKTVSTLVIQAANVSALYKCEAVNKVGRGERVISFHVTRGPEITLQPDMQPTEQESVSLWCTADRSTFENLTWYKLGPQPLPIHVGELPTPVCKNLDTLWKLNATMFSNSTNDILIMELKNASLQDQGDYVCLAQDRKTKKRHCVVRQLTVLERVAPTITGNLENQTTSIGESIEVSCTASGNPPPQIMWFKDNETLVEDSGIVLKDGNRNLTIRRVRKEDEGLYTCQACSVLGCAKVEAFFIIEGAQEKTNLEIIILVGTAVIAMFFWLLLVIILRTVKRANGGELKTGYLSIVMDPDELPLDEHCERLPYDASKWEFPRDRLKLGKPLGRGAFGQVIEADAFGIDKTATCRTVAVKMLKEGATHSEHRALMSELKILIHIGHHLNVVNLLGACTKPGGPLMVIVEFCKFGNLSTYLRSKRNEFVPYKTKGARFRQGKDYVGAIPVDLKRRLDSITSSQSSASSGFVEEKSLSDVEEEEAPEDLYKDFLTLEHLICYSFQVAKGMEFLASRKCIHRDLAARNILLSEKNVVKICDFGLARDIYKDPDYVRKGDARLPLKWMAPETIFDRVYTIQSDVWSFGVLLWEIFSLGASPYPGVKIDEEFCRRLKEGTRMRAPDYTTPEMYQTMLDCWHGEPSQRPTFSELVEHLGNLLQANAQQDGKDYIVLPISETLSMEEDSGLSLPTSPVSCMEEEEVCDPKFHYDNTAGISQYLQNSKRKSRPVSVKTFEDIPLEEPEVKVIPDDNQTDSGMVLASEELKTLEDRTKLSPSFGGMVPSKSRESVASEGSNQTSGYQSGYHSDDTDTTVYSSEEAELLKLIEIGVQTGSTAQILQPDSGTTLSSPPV
A further assay deals with T4, Progesterone receptor (Homo sapiens, UniProt P06401).
T4 sequence (P06401 whole entry): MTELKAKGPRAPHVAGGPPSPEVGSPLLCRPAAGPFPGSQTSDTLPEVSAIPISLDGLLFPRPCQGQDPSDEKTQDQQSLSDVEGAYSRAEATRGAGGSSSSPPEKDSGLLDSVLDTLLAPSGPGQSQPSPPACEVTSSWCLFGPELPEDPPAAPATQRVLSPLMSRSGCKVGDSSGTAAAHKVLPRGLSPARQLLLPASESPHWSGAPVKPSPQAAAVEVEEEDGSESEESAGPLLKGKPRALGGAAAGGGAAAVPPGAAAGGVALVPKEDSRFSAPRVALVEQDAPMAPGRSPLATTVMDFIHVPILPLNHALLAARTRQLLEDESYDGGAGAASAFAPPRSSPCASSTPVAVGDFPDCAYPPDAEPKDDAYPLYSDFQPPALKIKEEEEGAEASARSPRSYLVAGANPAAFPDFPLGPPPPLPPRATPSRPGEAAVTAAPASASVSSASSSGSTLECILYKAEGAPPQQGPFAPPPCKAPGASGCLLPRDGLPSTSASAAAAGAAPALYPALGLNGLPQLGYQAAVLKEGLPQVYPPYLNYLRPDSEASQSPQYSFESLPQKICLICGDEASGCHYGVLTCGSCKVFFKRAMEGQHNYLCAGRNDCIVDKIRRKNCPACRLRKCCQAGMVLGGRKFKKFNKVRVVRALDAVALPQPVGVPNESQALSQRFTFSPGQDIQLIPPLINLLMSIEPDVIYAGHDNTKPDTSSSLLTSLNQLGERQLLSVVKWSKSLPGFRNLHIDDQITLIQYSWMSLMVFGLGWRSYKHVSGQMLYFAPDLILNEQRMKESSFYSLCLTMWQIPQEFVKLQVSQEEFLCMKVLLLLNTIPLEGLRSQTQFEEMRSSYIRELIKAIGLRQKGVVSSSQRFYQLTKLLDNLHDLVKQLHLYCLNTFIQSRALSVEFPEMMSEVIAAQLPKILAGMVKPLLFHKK

For assay [5], the target named is T5, Thromboxane A2 receptor (Homo sapiens, UniProt P21731).
T5 sequence (P21731 whole entry): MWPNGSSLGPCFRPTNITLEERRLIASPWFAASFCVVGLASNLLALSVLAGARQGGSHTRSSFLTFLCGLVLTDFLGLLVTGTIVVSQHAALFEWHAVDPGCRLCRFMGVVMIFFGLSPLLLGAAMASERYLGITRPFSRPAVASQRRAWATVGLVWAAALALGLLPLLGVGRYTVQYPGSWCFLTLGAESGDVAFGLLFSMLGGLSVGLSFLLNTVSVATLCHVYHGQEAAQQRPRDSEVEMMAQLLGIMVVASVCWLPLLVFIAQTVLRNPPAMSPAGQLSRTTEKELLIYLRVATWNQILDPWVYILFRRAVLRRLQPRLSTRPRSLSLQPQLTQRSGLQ
The format is functional, cell-based.

The target in assay [6] is T5, Thromboxane A2 receptor. The format is functional, cell-based. This is another data set of the same source.
Note: assay procedure not described here.

With `C=CCN1C[C@H](C(=O)N(CCCN(C)C)C(=O)NCC)C[C@@H]2c3cccc4[nH]cc(c34)C[C@H]21` [CABERGOLINE], the AC50 at Adenosine receptor A3 was greater than 30 µM; in assay [1], greater than 30 µM; at Prothrombin, greater than 30 µM; in assay [2] it was 0.0083 µM; in assay [3], 0.0032 µM; in assay [4], greater than 30 µM. The AC50 at Progesterone receptor, on Thromboxane A2 receptor [5] and on Thromboxane A2 receptor [6] was greater than 30 µM throughout.

As to `CC(=O)Oc1ccc2c(c1)CC[C@@H]1[C@@H]2CC[C@]2(C)[C@@H](O)CC[C@@H]12` [ESTRADIOL ACETATE], the half-maximal activity concentration (AC50) on Adenosine receptor A3 was 10.5 µM; in assay [1] it was greater than 30 µM; on Prothrombin it was greater than 30 µM; in assay [2] it was greater than 30 µM; in assay [3] it was greater than 30 µM; in [4], greater than 30 µM. Further, the figures for the AC50 at Progesterone receptor, at Thromboxane A2 receptor [5] and at Thromboxane A2 receptor [6] were 0.209 µM, greater than 30 µM and 13.1 µM, respectively.

Regarding `CC(=O)c1ccc2c(c1)N(CCCN(C)C)c1ccccc1S2` [ACEPROMAZINE], the AC50 was greater than 30 µM at Adenosine receptor A3; greater than 30 µM in [1]; greater than 30 µM at Prothrombin; 0.248 µM in [2]; greater than 30 µM in assay [3]; greater than 30 µM in assay [4]. Further, the concentration at half-maximal activity (AC50) at Progesterone receptor is greater than 30 µM; on Thromboxane A2 receptor [5] it was greater than 30 µM; at Thromboxane A2 receptor [6], 13.7 µM.

On to `CC(CNC(=O)c1ccccc1)C(=O)OCC(=O)[C@@]12OC(C)(C)O[C@@H]1C[C@H]1[C@@H]3CCC4=CC(=O)C=C[C@]4(C)[C@@]3(F)[C@@H](O)C[C@@]12C` (some centres not stated) [TRIAMCINOLONE BENETONIDE], for which the concentration at half-maximal activity (AC50) (at Adenosine receptor A3; in assay [1]; at Prothrombin; in assay [2]; in [3]; in assay [4]) was greater than 30 µM each time. Further, the AC50 on Progesterone receptor, at Thromboxane A2 receptor [5] and on Thromboxane A2 receptor [6] was greater than 30 µM throughout.

On to `N=C1CCCN1Cc1[nH]c(=O)[nH]c(=O)c1Cl`, for which the half-maximal activity concentration (AC50) (on Adenosine receptor A3; in assay [1]; on Prothrombin; in assay [2]; in assay [3]; in assay [4]) was greater than 30 µM each time. Also, the concentration at half-maximal activity (AC50) at Progesterone receptor, on Thromboxane A2 receptor [5] and on Thromboxane A2 receptor [6] was greater than 30 µM throughout.

With `CCOc1ccc(Cc2cc([C@@H]3O[C@H](CO)[C@@H](O)[C@H](O)[C@H]3O)ccc2Cl)cc1` [DAPAGLIFLOZIN], the AC50 (on Adenosine receptor A3; in assay [1]; on Prothrombin; in assay [2]; in assay [3]; in assay [4]) was greater than 30 µM throughout. Moreover, the concentration at half-maximal activity (AC50) on Progesterone receptor, on Thromboxane A2 receptor [5] and on Thromboxane A2 receptor [6] was greater than 30 µM in each case.

On to `OB1OCc2cc(F)ccc21` [TAVABOROLE], for which the concentration at half-maximal activity (AC50) (at Adenosine receptor A3; in assay [1]; on Prothrombin; in assay [2]; in assay [3]; in assay [4]) was greater than 30 µM throughout. In addition, the AC50 at Progesterone receptor, at Thromboxane A2 receptor [5] and on Thromboxane A2 receptor [6] was greater than 30 µM in each case.

For the compound `CC(=O)OCC1=C(C(=O)O)N2C(=O)[C@@H](NC(=O)[C@H](N)c3ccccc3)[C@H]2SC1` [CEPHALOGLYCIN], the AC50 (at Adenosine receptor A3; in assay [1]; at Prothrombin; in assay [2]; in [3]; in assay [4]) was greater than 30 µM each time. Further, the concentration at half-maximal activity (AC50) at Progesterone receptor, on Thromboxane A2 receptor [5] and on Thromboxane A2 receptor [6] was greater than 30 µM throughout.

Consider `COc1ccc2c(c1)N(C[C@H](C)CN(C)C)c1ccccc1S2` [LEVOMEPROMAZINE], for which the AC50 at Adenosine receptor A3 is greater than 30 µM; in [1], greater than 30 µM; at Prothrombin it was greater than 30 µM; in [2], 2.84 µM; in [3], greater than 30 µM; in [4], greater than 30 µM. Further, the concentration at half-maximal activity (AC50) was greater than 30 µM on Progesterone receptor, greater than 30 µM on Thromboxane A2 receptor [5] and 26 µM on Thromboxane A2 receptor [6].

As for `NC1CCN(c2c(F)cc3c(=O)c(C(=O)O)cn(C4CC4)c3c2Cl)C1` (configuration not stated) [CLINAFLOXACIN], the AC50 (at Adenosine receptor A3; in assay [1]; on Prothrombin; in assay [2]; in assay [3]; in assay [4]) was greater than 30 µM each time. Besides, the concentration at half-maximal activity (AC50) on Progesterone receptor, at Thromboxane A2 receptor [5] and on Thromboxane A2 receptor [6] was greater than 30 µM each time.

As for `Cc1ccccc1OCC(O)CO` (configuration not stated) [MEPHENESIN], the AC50 (at Adenosine receptor A3; in assay [1]; at Prothrombin; in assay [2]; in assay [3]; in assay [4]) was greater than 30 µM throughout. Further, the half-maximal activity concentration (AC50) at Progesterone receptor, at Thromboxane A2 receptor [5] and at Thromboxane A2 receptor [6] was greater than 30 µM throughout.

Regarding `CC(C)(C)N1CCC(c2ccccc2)(c2ccccc2)CC1` [BUDIPINE], the AC50 (at Adenosine receptor A3; in assay [1]; on Prothrombin; in assay [2]; in assay [3]; in assay [4]) was greater than 30 µM in each case. In addition, the concentration at half-maximal activity (AC50) at Progesterone receptor, on Thromboxane A2 receptor [5] and on Thromboxane A2 receptor [6] was greater than 30 µM throughout.

`CCC(C)(C)c1ccc(CC(C)CN2C[C@@H](C)O[C@@H](C)C2)cc1` (some centres not stated) [AMOROLFINE]: the half-maximal activity concentration (AC50) was 12.1 µM on Adenosine receptor A3; greater than 30 µM in assay [1]; greater than 30 µM on Prothrombin; greater than 30 µM in [2]; greater than 30 µM in [3]; greater than 30 µM in assay [4]. Besides, the AC50 on Progesterone receptor, on Thromboxane A2 receptor [5] and at Thromboxane A2 receptor [6] was greater than 30 µM each time.

The AC50 is the concentration at which the activity in the assay is half-maximal. Low values mean greater potency, high ones weaker potency.
